From ChEMBL document CHEMBL6092192 (J Med Chem, 2024)
Calls of active or inactive are those of the source. The calls are words filed in the database; no cut-off is given here.

Experiments:
[1] = test system: CD8-positive T cell; assay: Activation of immune response in human CD8-positive T cell assessed as increase in IFN-gamma level at 4 uM by ELISA method; type: functional, cell-based
[2] = AUC (0 to t) in 12 hrs fasted Sprague-Dawley rat at 1 mg/kg, iv measured upto 720 mins by HPLC-MS/MS analysis; type: ADME, organism-based; conditions: in vivo
[3] = test system: KB 3-1; assay: Reversal of paclitaxel resistance in human KB 3-1 cells assessed as reversal fold by measuring ratio of paclitaxel IC50 to paclitaxel IC50 in presence of test compound at 2 uM incubated for 72 hrs by MTT assay; type: functional
[4] = Toxicity in BALB/c nude mouse xenografted with […] CT26/TAXOL cells assessed as effect on brain at 100 mg/kg/day, IG in presence of paclitaxel measured after 14 days by H and E staining based analysis; type: organism-based; conditions: in vivo, po, 336 h, time 14 day
[5] = test system: CT26/TAXOL; assay: Antitumor T-cell immune response in […] cells xenografted in BALB/c nude mouse model at 100 mg/kg/day, IG in presence of anti-PD-1/paclitaxel measured after 14 days; type: functional, organism-based; conditions: time 14.0 day
[6] = target: T1, Cytochrome P450 3A4 (Homo sapiens, UniProt P08684); assay: Activation of recombinant CYP3A4 in human liver microsomes at 4 uM measured after 30 mins in presence of NADPH generating system by fluorescence based analysis; type: ADME, Microsome; conditions: 0.5 h
T1 sequence (P08684 whole entry): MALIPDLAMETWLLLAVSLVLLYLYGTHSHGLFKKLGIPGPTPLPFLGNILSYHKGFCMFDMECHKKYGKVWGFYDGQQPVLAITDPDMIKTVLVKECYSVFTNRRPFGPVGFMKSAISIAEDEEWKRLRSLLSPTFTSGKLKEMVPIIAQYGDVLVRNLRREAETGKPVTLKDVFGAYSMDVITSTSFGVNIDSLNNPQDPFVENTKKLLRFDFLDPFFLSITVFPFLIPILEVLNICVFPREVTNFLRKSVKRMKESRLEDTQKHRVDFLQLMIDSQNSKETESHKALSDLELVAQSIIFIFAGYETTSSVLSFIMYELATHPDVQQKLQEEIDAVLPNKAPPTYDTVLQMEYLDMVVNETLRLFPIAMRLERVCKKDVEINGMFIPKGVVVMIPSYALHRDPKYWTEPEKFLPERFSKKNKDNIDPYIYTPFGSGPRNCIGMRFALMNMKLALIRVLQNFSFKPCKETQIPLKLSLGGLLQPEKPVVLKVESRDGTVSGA

[7] = Toxicity in BALB/c nude mouse assessed as effect on liver liver injury at 100 mg/kg/day, IG measured after 21 days in presence of paclitaxel by H and E staining based analysis; type: organism-based; conditions: in vivo, po, 504 h, time 21 day
[8] = target: ATP-dependent translocase ABCB1 (Homo sapiens, UniProt P08183); assay: Inhibition of ABCB1 in human SW620/AD300 cells assessed as increase in intracellular paclitaxel incubated for 4 hrs by liquid scintillation analysis; type: cell-based; conditions: sw620/ad300, 4 h, at 2 to 4 µM, dose 2-4 µM
ATP-dependent translocase ABCB1, sequence (P08183 whole entry): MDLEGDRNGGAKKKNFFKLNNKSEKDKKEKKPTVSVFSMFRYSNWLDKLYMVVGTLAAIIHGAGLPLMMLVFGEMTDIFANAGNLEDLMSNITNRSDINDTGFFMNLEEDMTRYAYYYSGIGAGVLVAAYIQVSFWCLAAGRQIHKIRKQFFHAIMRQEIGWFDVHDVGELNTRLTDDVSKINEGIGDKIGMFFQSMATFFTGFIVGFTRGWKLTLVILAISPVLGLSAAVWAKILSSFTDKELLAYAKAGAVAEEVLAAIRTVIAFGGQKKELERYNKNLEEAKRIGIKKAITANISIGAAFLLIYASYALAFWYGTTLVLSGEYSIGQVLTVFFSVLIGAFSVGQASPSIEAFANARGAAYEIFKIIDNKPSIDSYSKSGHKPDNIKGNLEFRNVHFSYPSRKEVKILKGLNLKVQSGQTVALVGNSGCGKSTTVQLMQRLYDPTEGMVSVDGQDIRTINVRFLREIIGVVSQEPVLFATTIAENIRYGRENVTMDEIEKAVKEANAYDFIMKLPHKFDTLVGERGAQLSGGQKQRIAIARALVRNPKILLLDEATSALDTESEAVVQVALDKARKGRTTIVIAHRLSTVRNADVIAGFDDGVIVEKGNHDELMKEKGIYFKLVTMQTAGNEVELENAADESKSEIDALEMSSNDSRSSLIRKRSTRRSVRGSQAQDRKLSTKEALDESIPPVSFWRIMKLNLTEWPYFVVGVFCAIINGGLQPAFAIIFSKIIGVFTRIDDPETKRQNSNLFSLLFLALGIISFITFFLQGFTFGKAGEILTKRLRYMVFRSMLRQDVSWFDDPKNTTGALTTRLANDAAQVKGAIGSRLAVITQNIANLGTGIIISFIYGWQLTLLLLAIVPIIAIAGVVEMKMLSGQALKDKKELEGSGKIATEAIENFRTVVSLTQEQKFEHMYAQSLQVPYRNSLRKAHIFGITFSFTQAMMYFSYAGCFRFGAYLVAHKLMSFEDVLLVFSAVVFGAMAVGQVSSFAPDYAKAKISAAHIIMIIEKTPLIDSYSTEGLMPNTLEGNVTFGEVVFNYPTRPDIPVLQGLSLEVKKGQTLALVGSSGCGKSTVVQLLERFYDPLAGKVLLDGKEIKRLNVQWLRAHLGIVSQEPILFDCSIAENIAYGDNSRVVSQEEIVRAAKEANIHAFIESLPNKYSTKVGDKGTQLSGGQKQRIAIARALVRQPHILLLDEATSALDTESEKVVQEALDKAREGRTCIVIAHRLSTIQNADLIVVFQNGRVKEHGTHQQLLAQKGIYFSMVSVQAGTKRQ

[9] = Toxicity in Sprague-Dawley rat assessed as change in body weight at 250 to 1000 mg/kg, po measured for 14 days administered as single dose; type: organism-based; conditions: in vivo, 336 h, dose 250-1000 mg/kg, time 14 day
[10] = Clearance in 12 hrs fasted Sprague-Dawley rat at 1 mg/kg, iv measured upto 720 mins by HPLC-MS/MS analysis; type: ADME, organism-based; conditions: in vivo
[11] = test system: CT26/TAXOL; assay: Antitumor T-cell immune response in […] cells xenografted in BALB/c nude mouse model assessed as reduction in tumor growth at 100 mg/kg/day, IG measured after 14 days; type: functional, organism-based; conditions: time 14.0 day
[12] = test system: SW620/AD300; assay: Antitumor activity against human SW620/AD300 cells xenografted in male BALB/c nude mouse model assessed as reduction in tumor weight at 100 mg/kg/day, IG measured after 21 days in presence of paclitaxel; type: functional, organism-based; conditions: time 21.0 day
[13] = MRT (0 to infinity) in 12 hrs fasted Sprague-Dawley rat at 1 mg/kg, iv measured upto 720 mins by HPLC-MS/MS analysis; type: ADME, organism-based; conditions: in vivo
[14] = test system: HEK293; assay: Cytotoxicity against HEK293 cells harbouring ABCB1 assessed as survival rate at 5 uM measured after 72 hrs by MTT assay relative to control; type: functional; conditions: Homo sapiens, read-out: Survival
[15] = Half life in 12 hrs fasted Sprague-Dawley rat at 10 mg/kg, po measured upto 720 mins by HPLC-MS/MS analysis; type: ADME, organism-based; conditions: in vivo
[16] = MRT (0 to t) in 12 hrs fasted Sprague-Dawley rat at 1 mg/kg, iv measured upto 720 mins by HPLC-MS/MS analysis; type: ADME, organism-based; conditions: in vivo
[17] = test system: KB-C2; assay: Reversal of paclitaxel resistance in human KB-C2 cells assessed as reversal fold by measuring ratio of paclitaxel IC50 to paclitaxel IC50 in presence of test compound at 2 uM incubated for 72 hrs by MTT assay; type: functional
[18] = test system: CT26/TAXOL; assay: Antitumor T-cell immune response in […] cells xenografted in BALB/c nude mouse model assessed as increase in CD8+ T-cell infiltration at 100 mg/kg/day, IG in presence of anti-PD-1/paclitaxel measured after 14 days by immunofluorescence staining based analysis; type: functional, organism-based; conditions: time 14.0 day
[19] = Toxicity in BALB/c nude mouse xenografted with […] CT26/TAXOL cells assessed as change in body weight at 100 mg/kg/day, IG measured upto 14 days in presence of paclitaxel/anti-PD-1; type: organism-based; conditions: in vivo, po, 336 h, time < 14 day
[20] = Toxicity in BALB/c nude mouse xenografted with […] CT26/TAXOL cells assessed as effect on liver at 100 mg/kg/day, IG in presence of paclitaxel/anti-PD-1 measured after 14 days by H and E staining based analysis; type: organism-based; conditions: in vivo, po, 336 h, time 14 day
[21] = target: Multidrug resistance-associated protein 1 (Homo sapiens, UniProt P33527); assay: Induction of thermal stabilization of ABCC1 in human SW620/AD300 cells at 200 uM measured after 30 mins by thermal shift assay; type: cell-based; conditions: sw620/ad300, 0.5 h
Multidrug resistance-associated protein 1, sequence (P33527 whole entry): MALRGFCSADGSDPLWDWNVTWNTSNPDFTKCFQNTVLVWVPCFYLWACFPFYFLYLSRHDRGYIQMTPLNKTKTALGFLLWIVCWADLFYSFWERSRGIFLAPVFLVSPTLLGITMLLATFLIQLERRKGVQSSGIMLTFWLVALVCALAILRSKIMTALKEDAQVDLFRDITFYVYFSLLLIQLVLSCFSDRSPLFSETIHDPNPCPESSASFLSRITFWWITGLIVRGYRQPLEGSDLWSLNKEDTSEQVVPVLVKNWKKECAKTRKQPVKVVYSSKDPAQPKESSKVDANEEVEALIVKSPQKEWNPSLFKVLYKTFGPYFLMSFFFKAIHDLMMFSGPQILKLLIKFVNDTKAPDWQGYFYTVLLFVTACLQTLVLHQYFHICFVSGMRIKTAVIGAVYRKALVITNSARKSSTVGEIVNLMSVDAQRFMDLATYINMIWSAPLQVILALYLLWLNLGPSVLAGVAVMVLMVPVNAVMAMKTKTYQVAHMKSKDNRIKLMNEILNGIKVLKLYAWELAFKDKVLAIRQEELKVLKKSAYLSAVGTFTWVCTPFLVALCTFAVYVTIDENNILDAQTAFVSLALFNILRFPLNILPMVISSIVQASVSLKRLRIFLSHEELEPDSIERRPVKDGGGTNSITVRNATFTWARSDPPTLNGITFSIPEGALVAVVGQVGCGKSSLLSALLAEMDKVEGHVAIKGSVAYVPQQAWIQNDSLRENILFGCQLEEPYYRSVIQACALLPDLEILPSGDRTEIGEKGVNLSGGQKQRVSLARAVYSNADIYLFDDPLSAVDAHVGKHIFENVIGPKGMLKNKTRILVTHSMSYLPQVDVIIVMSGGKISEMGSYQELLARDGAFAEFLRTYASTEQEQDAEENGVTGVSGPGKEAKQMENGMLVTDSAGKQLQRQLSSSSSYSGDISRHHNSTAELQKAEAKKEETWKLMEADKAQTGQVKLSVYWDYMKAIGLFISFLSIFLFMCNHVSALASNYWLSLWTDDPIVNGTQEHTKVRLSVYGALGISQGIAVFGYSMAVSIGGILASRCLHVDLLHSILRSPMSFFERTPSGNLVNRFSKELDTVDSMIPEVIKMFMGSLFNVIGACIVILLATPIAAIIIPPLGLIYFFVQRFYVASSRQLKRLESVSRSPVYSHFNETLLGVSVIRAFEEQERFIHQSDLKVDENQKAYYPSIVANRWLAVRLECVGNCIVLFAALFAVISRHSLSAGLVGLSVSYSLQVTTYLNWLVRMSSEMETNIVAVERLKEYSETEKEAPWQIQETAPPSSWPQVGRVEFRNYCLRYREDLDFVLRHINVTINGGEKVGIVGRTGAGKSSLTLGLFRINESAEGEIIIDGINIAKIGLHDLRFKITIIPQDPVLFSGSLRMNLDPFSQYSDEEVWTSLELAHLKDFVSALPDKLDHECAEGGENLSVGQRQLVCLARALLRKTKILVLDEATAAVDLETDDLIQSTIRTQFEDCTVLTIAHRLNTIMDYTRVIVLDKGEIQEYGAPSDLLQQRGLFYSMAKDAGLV

[22] = test system: SW620/AD300; assay: Antitumor activity against human SW620/AD300 cells xenografted in male BALB/c nude mouse model assessed as reduction in tumor volume at 100 mg/kg/day, IG measured after 21 days; type: functional, organism-based; conditions: time 21.0 day
[23] = Cmax in 12 hrs fasted Sprague-Dawley rat at 1 mg/kg, iv measured upto 720 mins by HPLC-MS/MS analysis; type: ADME, organism-based; conditions: in vivo
[24] = test system: KB-C2; assay: Cytotoxicity against human KB-C2 cells assessed as survival rate at 2 uM measured after 72 hrs by MTT assay relative to control; type: functional; conditions: read-out: Survival
[25] = Toxicity in BALB/c nude mouse xenografted with […] CT26/TAXOL cells assessed as change in body weight at 100 mg/kg/day, IG measured upto 14 days; type: organism-based; conditions: in vivo, po, 336 h, time < 14 day
[26] = Toxicity in BALB/c nude mouse xenografted with […] CT26/TAXOL cells assessed as effect on kidney at 100 mg/kg/day, IG in presence of paclitaxel measured after 14 days by H and E staining based analysis; type: organism-based; conditions: in vivo, po, 336 h, time 14 day
[27] = test system: CD8-positive T cell; assay: Activation of immune response in human CD8-positive T cell assessed as increase in TNF-alpha level at 4 uM by ELISA method; type: functional, cell-based
[28] = target: T1, Cytochrome P450 3A4; assay: Activation of recombinant CYP3A4 in human liver microsomes at 30 uM measured upto 40 mins in presence of NADPH generating system by fluorescence based analysis; type: ADME, Microsome
[29] = test system: SW620/AD300; assay: Antitumor activity against human SW620/AD300 cells xenografted in male BALB/c nude mouse model assessed as nuclear pyknosis at 100 mg/kg/day, IG in presence of paclitaxel by H and E staining based analysis; type: functional, organism-based
[30] = test system: KB 3-1; assay: Cytotoxicity against human KB 3-1 cells assessed as survival rate at 2 uM measured after 72 hrs by MTT assay relative to control; type: functional; conditions: read-out: Survival
[31] = test system: CT26/TAXOL; assay: Antitumor T-cell immune response in […] cells xenografted in BALB/c nude mouse model assessed as reduction in tumor volume at 100 mg/kg/day, IG in presence of anti-PD-1/paclitaxel measured after 14 days; type: functional, organism-based; conditions: time 14.0 day
[32] = Toxicity in BALB/c nude mouse xenografted with […] CT26/TAXOL cells assessed as mortality at 100 mg/kg/day, IG measured upto 14 days; type: organism-based; conditions: in vivo, po, 336 h, time < 14 day

With O=c1c2c([nH]c3nc(SCc4nc5ccccc5s4)nn13)CCC2 the Activity [1] was “Active”, the AUC(0-t) at 12 h [2] was 880 ng·h/mL and the “Ratio IC50” value [3] was 1.05. The Activity [4] was “Non-toxic”, the Activity [5] was “Active” and the Activity [6] was “Active”. For the same compound, the Activity [7] was “Non-toxic”, the “inhibition (INH)” value [8] was “Dose-dependent-effect” and the Activity [9] was “Non-toxic”. The clearance [10] was 18.3 mL/min/kg, the Activity [11] was “Not active; Compound Showed Negligible Effect” and the Activity [12] was “Active”. The MRT inf [13] was 5.49 h, the viability at 5 µM [14] was 91.2% and the half-life [15] was 4.07 h. The MRT last at 12 h [16] was 4.42 h, the “Ratio IC50” value [17] was 106.85 and the Activity [18] was “Active”. For the same compound, the Activity [19] was “Non-toxic”, the Activity [20] was “Non-toxic” and the Activity [21] was “Not_active”. The Activity [22] was “Active; Compound Showed Negligible Effect”, the Cmax [23] was 380 ng/mL and the viability at 2 µM [24] was 96.2%. The Activity [25] was “Non-toxic”, the Activity [26] was “Non-toxic” and the Activity [27] was “Active”. For the same compound, the Activity [28] was “Active”, the Activity [29] was “Active” and the viability at 2 µM [30] was 99.6%. The Activity [31] was “Active” and the Activity [32] was “Non-toxic”.
